{
  "source": "patent US20050131209A1",
  "about": "“Crystallized hnf4 gamma ligand binding domain polypeptide and screening methods employing same” (priority 2001, published 2005)",
  "key": {"HNF4α": {"target": "T1, HNF4α (Homo sapiens, UniProt P41235)", "T1 sequence (P41235 1-474)": "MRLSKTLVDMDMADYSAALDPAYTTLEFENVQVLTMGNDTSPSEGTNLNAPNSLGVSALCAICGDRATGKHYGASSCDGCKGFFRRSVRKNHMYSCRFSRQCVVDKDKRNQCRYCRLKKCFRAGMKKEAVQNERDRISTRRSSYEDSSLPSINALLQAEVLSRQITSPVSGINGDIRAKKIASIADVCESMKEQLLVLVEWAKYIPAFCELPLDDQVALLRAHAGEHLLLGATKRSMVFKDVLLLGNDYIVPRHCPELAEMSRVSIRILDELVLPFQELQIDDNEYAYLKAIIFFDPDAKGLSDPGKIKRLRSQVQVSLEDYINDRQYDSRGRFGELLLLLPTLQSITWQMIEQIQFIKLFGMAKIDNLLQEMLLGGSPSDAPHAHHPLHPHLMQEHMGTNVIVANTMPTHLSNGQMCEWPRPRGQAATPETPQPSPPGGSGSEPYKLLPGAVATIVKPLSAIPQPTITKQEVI", "assay": "GC/MS analyses of receptor extracts, HNF4α", "type": "binding", "description": "Palmitic acid forms hydrogen bonds with the side chain of arginine 186, and with the backbone nitrogen of glycine 197 (not shown). Alanine 215 corresponds to serine 256 in HNF4α. Because serine can form hydrogen bonds to the ligand, the specificity is different for the two receptor subtypes. […] Valine 214 corresponds to valine 255 in HNF4α, and is one of the mutations associated with MODY, Type 1."}, "[1]": {"target": "T2, HNF4γ LBD / CBP (CREB-binding protein) (Homo sapiens, UniProt Q14541)", "T2 construct": "HNF4γ amino acids 102-408; biotin (chemical biotinylation); made in house; host or cells: E. coli", "T2 sequence (Q14541 102-408)": "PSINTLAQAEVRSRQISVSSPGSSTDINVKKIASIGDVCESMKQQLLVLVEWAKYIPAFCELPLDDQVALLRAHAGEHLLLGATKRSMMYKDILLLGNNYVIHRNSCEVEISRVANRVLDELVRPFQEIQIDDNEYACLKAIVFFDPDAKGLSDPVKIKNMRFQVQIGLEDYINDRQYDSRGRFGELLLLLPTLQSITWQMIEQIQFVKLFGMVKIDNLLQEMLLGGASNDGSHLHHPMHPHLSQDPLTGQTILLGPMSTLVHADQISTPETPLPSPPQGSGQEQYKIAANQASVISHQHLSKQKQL", "assay": "FRET assay of CBP recruitment to HNF4γ LBD", "type": "biochemical", "conditions": "cell-free FRET; for pKd: dose dependent, read-out: apparent binding constant (increase of CBP-HNF4 interaction); for effect on CBP recruitment / association between HNF4 and CBP: ligands incubated 15 minutes at 21° C.", "procedure": "(§1) To confirm that fatty acids were functional HNF4 ligands, HNF4α and HNF4γ were tested for their ability to recruit the nuclear receptor co-activator CREB binding protein, a known activation partner (Wang et al., (1998) J. Biol. Chem. 273: 30847-50; Dell & Hadzopoulou-Cladaras, (1999) J. Biol. Chem. 274: 9013-21). A FRET (fluorescent resonance energy transfer) assay was employed using purified recombinant CREB-binding protein (CBP) and HNF4 LBD (Zhou et al., (1998) Mol. Endocrinol. 12: 1594-1604). Long-chain fatty acids (LCFA) with increasing carbon lengths from 12 to 18 carbon methylene units were tested for their ability to modulate the association between HNF4 and CBP in a dose dependent manner. […] Palmitic and stearic acids increased the allosteric interaction between CBP and HNF4, with apparent binding constants of 1 μM.\n(§2) The reported ligands for HNF4α are fatty acyl-CoA thioesters (Hertz et al., (1998) Nature (London) 392: 512-16), which are much larger than other nuclear receptor ligands (Bogan et al., (1998) Nat. Struct. Biol. 5: 679-81). […] Shorter fatty acyl-CoAs had no effect on CBP association.\n(§3) A cell-free fluorescent resonance energy transfer (FRET) assay was used to measure the association between the amino portion of CBP (CREB-binding protein) (residues 54-457) and the HNF4 LBD (HNF4α amino acids 141465 and HNF4γ amino acids 102-408) (Zhou et al., (1998) Mol. Endocrinol 12: 1594-1604). Proteins were expressed in E. coli, purified to homogeneity, and biotinylated. CBP, the fluorescence donor, was labeled with a europium chelate, and HNF4 LBD was labeled with the streptavidin-conjugated fluorophore allophycocyanin (Molecular Probes, Eugene, Oreg.). Labeled HNF4 LBD and CBP were incubated together with ligands for 15 minutes at 21° C. before assaying. A small basal level was observed, as depicted in FIG. 3."}, "[2]": {"target": "T3, HNF4α LBD / CBP (CREB-binding protein) (Homo sapiens, UniProt P41235)", "T3 construct": "HNF4α amino acids 141465 and HNF4γ amino acids 102-408; biotin (chemical biotinylation); made in house; host or cells: E. coli", "T3 sequence (P41235 150-474 limits assumed)": "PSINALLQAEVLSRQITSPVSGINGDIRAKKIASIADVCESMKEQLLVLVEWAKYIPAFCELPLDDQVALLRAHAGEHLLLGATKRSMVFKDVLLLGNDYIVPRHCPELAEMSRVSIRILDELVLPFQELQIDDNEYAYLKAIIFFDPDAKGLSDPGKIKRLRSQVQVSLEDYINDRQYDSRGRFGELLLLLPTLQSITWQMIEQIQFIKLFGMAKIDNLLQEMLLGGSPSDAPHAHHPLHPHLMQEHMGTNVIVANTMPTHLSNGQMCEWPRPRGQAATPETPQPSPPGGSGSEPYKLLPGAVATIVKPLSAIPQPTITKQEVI", "assay": "FRET assay of CBP recruitment to HNF4α LBD", "type": "biochemical", "conditions": "cell-free FRET; for pKd: dose dependent, read-out: apparent binding constant (increase of CBP-HNF4 interaction); for effect on CBP recruitment / association between HNF4 and CBP: ligands incubated 15 minutes at 21° C.", "procedure": "as §1, §2, §3"}, "HNF4γ LBD": {"target": "T4, HNF4γ LBD (Homo sapiens, UniProt Q14541)", "T4 construct": "HNF4γ amino acids 102-408; made in house; host or cells: E. coli BL21 (DE3), vector pRSETa", "T4 sequence (Q14541 102-408)": "T2 sequence (Q14541 102-408)", "assay": "GC/MS identification of fatty acids bound to purified HNF4γ LBD (extract)", "type": "binding", "conditions": "lipid extract of purified HNF4γ LBD, methyl esters, CI and EI", "procedure": "The description of the bound ligand from the structural data led to the belief that the compound was a fatty acid. Analytical methods were used to obtain a definitive identification of the ligand. First, bound ligand(s) was separated from a purified preparation of HNF4γ LBD by liquid-liquid extraction (Folch et al., (1957) J. Biol. Chem. 226: 497-509). The extract was then treated with 3% (v/v) acetyl chloride in methanol. This reagent converts fatty acids to their corresponding fatty acid methyl esters (FAME). The derivatized sample was then analyzed by gas chromatography/mass spectrometry (GC/MS) using both electron impact ionization (EI) and chemical ionization (CI) in separate analyses. The constituents of the extract were identified by comparing the GC/MS data for the extract with data for standard fatty acids, acquired likewise.\nThe CI mass spectra for peaks a through g all show a protonated molecular ion ([M+H]^+) along with a fragment ion at a mass-to-charge (m/z) value 32 Da below the protonated molecular ion. […]\nThe second column lists the protonated molecular ion detected of each labeled peak in FIG. 4. […]\nLipids were extracted from an aliquot of HNF4γ LBD with chloroform/methanol 2:1 (v/v). […] The derivatized sample was then analyzed by GC/MS on a Shimadzu GC-17A QP-5050A instrument. […]"}},
  "note": "pKd: −log10 of the molar value. “Also recorded” adds a separate entry of the source.",
  "data": [
    {"smiles": "CCCCCCCCCCCCCCCCCC(=O)O", "note": "[stearic acid]", "values": [
      {"measurement": "binding to HNF4α by GC/MS of receptor extracts", "setting": "HNF4α", "result": "binds"},
      {"measurement": "pKd", "setting": "[1]", "result": 6.00},
      {"measurement": "effect on CBP recruitment / association between HNF4 and CBP", "setting": "[1]", "result": "functional activators; also recorded: increased"},
      {"measurement": "pKd", "setting": "[2]", "result": 6.00},
      {"measurement": "effect on CBP recruitment / association between HNF4 and CBP", "setting": "[2]", "result": "functional activators; also recorded: increased"}
    ]},
    {"smiles": "CCCCCCCCCCCCCCCC(=O)SCCNC(=O)CCNC(=O)[C@H](O)C(C)(C)COP(=O)(O)OP(=O)(O)OC[C@H]1O[C@@H](n2cnc3c(N)ncnc32)[C@H](O)[C@@H]1OP(=O)(O)O", "note": "[palmitoyl-CoA]", "values": [
      {"measurement": "effect on CBP recruitment / association between HNF4 and CBP", "setting": "[1]", "result": "decreased the basal level"},
      {"measurement": "effect on CBP recruitment / association between HNF4 and CBP", "setting": "[2]", "result": "decreased the basal level"}
    ]},
    {"smiles": "CCCCCCCCCCCCCCCCCC(=O)SCCNC(=O)CCNC(=O)[C@H](O)C(C)(C)COP(=O)(O)OP(=O)(O)OC[C@H]1O[C@@H](n2cnc3c(N)ncnc32)[C@H](O)[C@@H]1OP(=O)(O)O", "note": "[steroyl-CoA]", "values": [
      {"measurement": "effect on CBP recruitment / association between HNF4 and CBP", "setting": "[1]", "result": "decreased the basal level"},
      {"measurement": "effect on CBP recruitment / association between HNF4 and CBP", "setting": "[2]", "result": "decreased the basal level"}
    ]},
    {"smiles": "CCCCCCCCCCCCCCCC(=O)O", "note": "[palmitic acid]", "values": [
      {"measurement": "fatty acid found in HNF4γ extract by GC/MS", "setting": "HNF4γ LBD", "result": "most abundant component"},
      {"measurement": "binding to HNF4α by GC/MS of receptor extracts", "setting": "HNF4α", "result": "binds"},
      {"measurement": "pKd", "setting": "[1]", "result": 6.00},
      {"measurement": "effect on CBP recruitment / association between HNF4 and CBP", "setting": "[1]", "result": "functional activators; also recorded: increased"},
      {"measurement": "pKd", "setting": "[2]", "result": 6.00},
      {"measurement": "effect on CBP recruitment / association between HNF4 and CBP", "setting": "[2]", "result": "functional activators; also recorded: increased"}
    ]}
  ]
}
